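Protocol summary: plate cells (96-well), add compound at 5 concentrations, incubate 48 h, interpolate endpoints linearly. GI50: concentration for 50% inhibition of growth. TGI: concentration producing complete growth inhibition.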

Among the test systems are A549 NSCLC; CAKI-1 renal; EKVX NSCLC; HCC-2998 colon; IGROV1 ovarian; OVCAR-5 ovarian; SNB-19 CNS; TK-10 renal; UO-31 renal; SF-539 CNS.
Holding throughout (assay): DTP human tumour cell line panel, 48 h

As for `N#CC1=C(N)Oc2c(sc3c(Br)cccc23)C1c1ccc(F)cc1` (stereo unspecified), the GI50 was 0.519 µM in the assay with A549 NSCLC; 0.437 µM in the assay with CAKI-1 renal; 0.534 µM in the assay on EKVX NSCLC; 0.797 µM in the assay on HCC-2998 colon; 0.605 µM in the assay on IGROV1 ovarian; 1.77 µM with OVCAR-5 ovarian. Moreover, the figures for the GI50 in the assay with SNB-19 CNS, with TK-10 renal and in the assay with UO-31 renal were 0.719 µM, 0.436 µM and 0.515 µM, respectively. Besides, the TGI with A549 NSCLC came out at 18 µM; in the assay on CAKI-1 renal it was 31.9 µM; in the assay on EKVX NSCLC it was 23.2 µM; in the assay on HCC-2998 colon, 10.1 µM; in the assay with IGROV1 ovarian, 21 µM; in the assay with OVCAR-5 ovarian it was 19.6 µM. Further, the figures for the TGI in the assay with SNB-19 CNS, with TK-10 renal and with UO-31 renal were 25 µM, 15.8 µM and 20.1 µM, respectively.
As for `O=C(O)C(CS)N=Cc1nc(-c2ccccc2)oc1O` (stereo unspecified), the TGI with A549 NSCLC, with EKVX NSCLC, in the assay on HCC-2998 colon, in the assay on IGROV1 ovarian, in the assay on OVCAR-5 ovarian and in the assay on SF-539 CNS was over 100 µM throughout. Further, the TGI in the assay with SNB-19 CNS, in the assay on TK-10 renal and with UO-31 renal was over 100 µM in each case.
For `O=C(O)C(O)c1ccc(F)cc1` (stereo unspecified), the TGI with A549 NSCLC, in the assay with CAKI-1 renal, in the assay with EKVX NSCLC, in the assay on IGROV1 ovarian, in the assay with OVCAR-5 ovarian and in the assay on SNB-19 CNS was over 100 µM throughout. The TGI in the assay with TK-10 renal and in the assay on UO-31 renal was over 100 µM in each case.
For the compound `C1=CC=C2NCCSCCNC3=CC=CC=CC3=NCCSCCN=C2C=C1`, the TGI in the assay on A549 NSCLC, in the assay with CAKI-1 renal, in the assay on EKVX NSCLC, in the assay on HCC-2998 colon, in the assay on IGROV1 ovarian and in the assay with OVCAR-5 ovarian was over 100 µM each time. Besides, the TGI with SNB-19 CNS, with TK-10 renal and with UO-31 renal was over 100 µM each time.
For `C/C(=N\O)[C@H]1CC[C@@]2(C)[C@@H]3CC[C@H]4C(C)(C)/C(=N/O)CC[C@@]45CC35CC[C@]12C` (stereo partly specified), the GI50 is 3.92 µM in the assay on A549 NSCLC; 5.66 µM in the assay with EKVX NSCLC; 5.28 µM with IGROV1 ovarian; 3.14 µM with SF-539 CNS; 8.21 µM in the assay with SNB-19 CNS; 8.17 µM in the assay with TK-10 renal. The TGI is 9.59 µM with A549 NSCLC; over 16.7 µM with EKVX NSCLC; over 16.7 µM with IGROV1 ovarian; 6.72 µM with SF-539 CNS; over 16.7 µM in the assay on SNB-19 CNS; over 16.7 µM with TK-10 renal.
As to `C=C1c2ccccc2N(S(=O)(=O)c2ccc(C)cc2)C12CCCCC2`, the TGI in the assay on A549 NSCLC, with EKVX NSCLC, in the assay on HCC-2998 colon, in the assay on IGROV1 ovarian, with OVCAR-5 ovarian and with SF-539 CNS was over 100 µM in each case. Further, the TGI in the assay on SNB-19 CNS, with TK-10 renal and in the assay on UO-31 renal was over 100 µM each time.
For `Cc1nc2cc(Nc3nc(Nc4ccc(F)cc4)nc(-c4ccc(Cl)cc4)n3)ccc2n1Cc1ccccc1`, the GI50 is 6.18 µM in the assay with A549 NSCLC; 6.36 µM in the assay on HCC-2998 colon; 5.9 µM in the assay with IGROV1 ovarian; 5.76 µM in the assay with OVCAR-5 ovarian; 11.3 µM in the assay with SF-539 CNS; 9.77 µM with SNB-19 CNS. The GI50 in the assay with UO-31 renal was 3.59 µM. Also, the TGI was 36.9 µM with A549 NSCLC; over 100 µM in the assay with HCC-2998 colon; over 100 µM with IGROV1 ovarian; over 100 µM in the assay on OVCAR-5 ovarian; 28.7 µM in the assay with SF-539 CNS; over 100 µM with SNB-19 CNS. Besides, in the assay with UO-31 renal, the TGI is over 100 µM.
With `Cc1cc2c(-c3nc4ccccn4c3NC34CC5CC(CC(C5)C3)C4)c(O)c(O)cc2c(O)c1-c1c(C)cc2c(-c3nc4ccccn4c3NC34CC5CC(CC(C5)C3)C4)c(O)c(O)cc2c1O`, the GI50 in the assay with A549 NSCLC was 0.255 µM; in the assay with EKVX NSCLC it was 0.454 µM; in the assay with HCC-2998 colon it was 1.13 µM; in the assay on IGROV1 ovarian, 0.883 µM; in the assay on OVCAR-5 ovarian, 0.922 µM; in the assay with SF-539 CNS it was 0.671 µM. Moreover, the 50% growth inhibitory concentration (GI50) with SNB-19 CNS was 0.214 µM; with TK-10 renal, 0.794 µM; with UO-31 renal, 0.657 µM. In addition, the TGI in the assay on A549 NSCLC is over 25 µM; in the assay on EKVX NSCLC, over 25 µM; in the assay with HCC-2998 colon it was over 25 µM; in the assay on IGROV1 ovarian, over 25 µM; in the assay on OVCAR-5 ovarian it was over 25 µM; in the assay with SF-539 CNS, 2.98 µM. For the same compound, the figures for the TGI in the assay on SNB-19 CNS, in the assay on TK-10 renal and with UO-31 renal were 3.99 µM, over 25 µM and 4.16 µM, respectively.
With `O=c1c2ccccc2c(=O)c2c1sc1c(=O)c3ccc(O)cc3c(=O)c12`, the GI50 with A549 NSCLC is 0.222 µM; in the assay with CAKI-1 renal it was 1.29 µM; in the assay with EKVX NSCLC it was 1.34 µM; with IGROV1 ovarian, 2.1 µM; with OVCAR-5 ovarian, 1.74 µM; in the assay with SF-539 CNS it was 0.245 µM. In addition, the GI50 was 0.342 µM in the assay with SNB-19 CNS, 2.24 µM in the assay on TK-10 renal and 0.644 µM in the assay on UO-31 renal. In addition, the TGI was determined as 0.497 µM in the assay with A549 NSCLC; 3.26 µM in the assay with CAKI-1 renal; 3.66 µM with EKVX NSCLC; 6.84 µM in the assay with IGROV1 ovarian; 3.65 µM in the assay on OVCAR-5 ovarian; 0.661 µM in the assay with SF-539 CNS. Further, the TGI stood at 1.24 µM in the assay with SNB-19 CNS, 3.97 µM in the assay with TK-10 renal and 2.82 µM with UO-31 renal.
For `COc1cc(/C=C2/C(=O)N(C(=O)c3ccccc3O)N=C2C)ccc1O`, the TGI with A549 NSCLC was over 100 µM; with CAKI-1 renal it was over 25.5 µM; in the assay on EKVX NSCLC, over 77.7 µM; with HCC-2998 colon it was over 100 µM; in the assay on IGROV1 ovarian, 2.06 µM; with OVCAR-5 ovarian, over 100 µM. The total growth inhibition concentration (TGI) in the assay with SNB-19 CNS and in the assay with TK-10 renal was over 100 µM throughout.
With `CCOC(=O)/N=c1\ssc(Cl)c1Cl`, the GI50 in the assay with A549 NSCLC is 24.1 µM; in the assay on CAKI-1 renal, 14.9 µM; with EKVX NSCLC, 19.9 µM; in the assay with HCC-2998 colon, 2.83 µM; in the assay on OVCAR-5 ovarian, 4.86 µM; in the assay with SF-539 CNS it was 2.87 µM. The GI50 in the assay on SNB-19 CNS was 23.7 µM; in the assay with TK-10 renal, 4.72 µM; in the assay on UO-31 renal it was 4.97 µM. Moreover, the TGI was found to be 73.8 µM with A549 NSCLC; 29.4 µM in the assay with CAKI-1 renal; 42.7 µM in the assay on EKVX NSCLC; 5.39 µM in the assay on HCC-2998 colon; 28.1 µM in the assay on OVCAR-5 ovarian; 8.97 µM with SF-539 CNS. Further, the TGI with SNB-19 CNS is 56.9 µM; in the assay with TK-10 renal it was 18.5 µM; with UO-31 renal, over 100 µM.

In general, GI50 refers to the concentration giving 50% growth inhibition. What is called TGI is the concentration giving total growth inhibition. Higher therefore signals less potent growth arrest.

The record behind these values is PubChem BioAssay (NCI).
